Where two headings read alike, the source gives them in different places.
Assays:
[1] = ABTS radical scavenging assay; format: biochemical; settings: for IC50: 30-min incubation; for ABTS Assay TEAC50: Equivalent antioxidant capacity at Trolox 50 mM; for ABTS Assay TEAC100: Equivalent antioxidant capacity at Trolox 100 mM
Protocol: The mixture was stored in the dark at room temperature for 16 h. […] All the compounds tested were dissolved in EtOH. […] The degree of decolorization was calculated as the percentage reduction of absorbance. […] Trolox was used as a reference antioxidant.

[2] = Ferric reducing antioxidant power (FRAP) assay; format: biochemical; set-up: FRAP Assay Trolox Equivalents: unit not given here; settings: for FRAP Assay Antioxidant Capacity (%) at 100 uM: compound at 100 uM; for FRAP Assay Antioxidant Capacity (%) at 200 uM: compound at 200 uM
Protocol: FRAP reagent was prepared by mixing 10 mL of 300 mM acetate buffer with 1 mL of 10 mM 2,4,6-tripyridyl-S-triazine (TPTZ) in HCl 40 mM and 1mL of FeCl3·6H2O 20 mM. […] Trolox was used as assay control.

[3] = Kinetic solubility by UV spectrometry; format: physicochemical; settings: PBS 50 mM, aqueous buffer, kinetic from dmso stock
Protocol: A modified protocol was used from that described by Hoelke et al. for the determination of the kinetic solubility from DMSO compound solutions. A compound calibration curve (compound concentration vs UV absorption) was prepared for each compound with concentrations of 10, 20, 50, 100, and 200 µM. Each compound dilution was carried out by pipetting defined volumes of a 20 mM stock compound solution in DMSO into vials and adding PBS 50 mM to reach a final volume of 1 mL/well. The final amount of DMSO per well was 2%. For the lower compound concentrations, an additional volume of DMSO was added to each well to reach 2% DMSO. Then, 200 µL of each dilution was transferred to a new 96-well culture plate for the measurement of the UV-spectra. One well in each row was left without a compound as a blank, and its UV absorbance was used as an offset correction. The experiments were performed in duplicate.
In parallel, compound saturation solutions were reached and filtered from 20 mM compound stock in DMSO: 10 µL of a 20 mM stock solution was dispensed into 190 µL of PBS 10 mM. The solutions were mixed, shaken on a microplate shaker for two hours, and then 160 µL of each solution was filtered and transferred to a new well plate for UV absorption measurement.
Measurement of the UV-spectra was performed using a Varioskan microplate reader, and spectra were taken in the range of 270–600 nm. Spectral bandwidth was set to 5 nm, and the data pint interval was 10 nm. The experiments were carried out in triplicate.

[4] = test system: SH-SY5Y cells; assay: Cytotoxicity, MTT assay, SH-SY5Y; format: cell-based; settings: Homo sapiens, read-out: SH-SY5Y IC50
Protocol: (§1) All compounds tested were dissolved and eventually further diluted in dimethylsulfoxide (DMSO). After overnight incubation, the cells were treated with different compound concentrations (5, 10, 20, 50, 100, 150, 200 µM) in a final volume of 200 µL with four replicates each. […] Cell proliferation or viability was measured using the 3-(4,5-dimethylthiazol-2-yl)-2,5-diphenyl tetrazolium bromide (MTT) assay. The MTT assay was optimized taking into account the number of cells plated per well, to work in the linear part of the cell density vs. MTT absorbance calibration curve, which allows achieving a maximum absorbance in the range of 0.8–1.0 in each well at the end of the experiment. In addition to that, the number of cells seeded for each experiment was optimized in agreement with the time scale of the experiment.
(§2) After cell treatment, 20 µL of MTT (5 mg/mL) was added to each well, and the plate was incubated at 37 °C in the dark for 2 h. Supernatants were removed, and the formazan crystals were solubilized in DMSO (200 µL/well), under 10 min shaking at room temperature. The reduction of MTT was quantified by absorbance at 570 nm in a Varioskan microplate reader (Thermo Fisher Scientific, Vantaa, Finland). Effects of the test compounds on cell viability were calculated using cells treated with a vehicle as a control. For IC50 and LD50 calculations, the data were subjected to linear regression analysis, and the regression lines were plotted for the best fit. The IC50 (inhibition of cell viability) concentrations were calculated using the respective dose–response curves.

[5] = test system: HepG2 cells; assay: Cytotoxicity, MTT assay, HepG2; format: cell-based; settings: Homo sapiens
Protocol: as §1, §2

[6] = HepG2, MTT, cytotoxicity, read-out: HepG2 IC50

SMILES | IC50 [1] [µM] | ABTS Assay TEAC50 [1] | ABTS Assay TEAC100 [1] | FRAP Assay Trolox Equivalents [2] | FRAP Assay Antioxidant Capacity (%) at 100 uM [2] [%] | FRAP Assay Antioxidant Capacity (%) at 200 uM [2] [%] | solubility [3] [µM] | IC50 ([4]; MTT, cytotoxicity) [µM] | IC50 [5, 6] [µM] | melting point [°C] | IC50 [4] [µM] | IC50 ([5]; HepG2, read-out: HepG2 IC50) [µM]
CC1=Nc2c(F)c(F)c(F)c(F)c2NC(=O)C1 [Compound 1, 6,7,8,9-Tetrafluoro-4-methyl-1H-1,5-benzodiazepin-2(3H)-one] | 576 ± 40 | 0.33 | 0.16 | 0.01 | 0.5 | 0.5 | > 200 | > 250 | > 250 | 155.2 | – | –
CC1=Nc2c(F)c(F)c(F)c(F)c2N(C)C(=O)C1 [Compound 2, 6,7,8,9-tetrafluoro-1,4-dimethyl-1H-1,5-benzodiazepin-2(3H)-one] | > 1000 | – | – | 0.02 | 1.00 | 0.5 | > 200 | > 250 | > 250 | 132.2 | – | –
O=C1CC(c2ccccc2)=Nc2c(F)c(F)c(F)c(F)c2N1 [Compound 3, 6,7,8,9-tetrafluoro-4-phenyl-1H-1,5-benzodiazepin-2(3H)-one] | > 1000 | – | – | 0.03 | 1.5 | 1.8 | < 100 | > 250 | > 250 | 253.3 | – | –
CN1C(=O)CC(c2ccccc2)=Nc2c(F)c(F)c(F)c(F)c21 [Compound 4, 6,7,8,9-tetrafluoro-4-phenyl-1-methyl-1H-1,5-benzodiazepin-2(3H)-one] | > 1000 | – | – | 0.02 | 1.1 | 1.3 | – | > 250 | > 250 | 133.7 | – | –
O=C1CC(c2ccccc2F)=Nc2c(F)c(F)c(F)c(F)c2N1 [Compound 5, 6,7,8,9-tetrafluoro-4-(2-fluorophenyl)-1H-1,5-benzodiazepin-2(3H)-one] | 658 ± 96 | 0.32 | 0.15 | 0.03 | 1.4 | 5.5 | < 20 | > 250 | > 250 | 248.1 | – | –
CN1C(=O)CC(c2ccccc2F)=Nc2c(F)c(F)c(F)c(F)c21 [Compound 6, 6,7,8,9-tetrafluoro-4-(2-fluorophenyl)-1-methyl-1H-1,5-benzodiazepin-2(3H)-one] | > 1000 | – | – | 0.02 | 1.1 | 1.6 | < 200 | – | – | 142.6 | > 250 | > 250
O=C1CC(c2ccccc2Cl)=Nc2c(F)c(F)c(F)c(F)c2N1 [Compound 7, 6,7,8,9-tetrafluoro-4-(2-chlorophenyl)-1H-1,5-benzodiazepin-2(3H)-one] | 635 ± 87 | 0.35 | 0.16 | 0.01 | 0.6 | 0.4 | < 50 | 135 ± 11.2 | 201 ± 13.1 | 211.7 | – | –
CN1C(=O)CC(c2ccccc2Cl)=Nc2c(F)c(F)c(F)c(F)c21 [Compound 8, 6,7,8,9-tetrafluoro-4-(2-chlorophenyl)-1-methyl-1H-1,5-benzodiazepin-2(3H)-one] | > 1000 | – | – | 0.01 | 0.6 | 0.2 | < 100 | – | – | 128.7 | 150 ± 17 | 207 ± 27
CN1C(=O)CC(c2ccccc2)=Nc2cc(F)c(F)cc21 [Compound 10, 7,8-Difluoro-1-methyl-4-phenyl-1H-1,5-benzodiazepin-2(3H)-one] | > 1000 | – | – | 0.01 | 0.3 | 0.6 | > 200 | 193 ± 15.9 | > 250 | 115.8 | – | –
CN1C(=O)CC(c2ccccc2)=Nc2ccc(F)cc21 [Compound 12, 8-Fluoro-1-methyl-4-phenyl-1H-1,5-benzodiazepin-2(3H)-one] | > 1000 | – | – | 0.02 | 0.8 | 1.4 | > 200 | – | – | – | 240 ± 24.9 | 230 ± 25.5
CN1C(=O)CC(c2ccccc2)=Nc2cc(F)ccc21 [Compound 14, 7-Fluoro-1-methyl-4-phenyl-1H-1,5-benzodiazepin-2(3H)-one] | > 1000 | – | – | 0.01 | 0.3 | 0.6 | > 200 | – | – | 107.7 | 220 ± 27.9 | 233 ± 18.7
O=C1CC(c2ccccc2)=Nc2cc(F)cc(F)c2N1 [Compound 15, 7,9-Difluoro-4-phenyl-1H-1,5-benzodiazepin-2(3H)-one] | 496 ± 82 | 0.34 | 0.15 | 0.07 | 3.8 | 6.2 | < 10 | > 250 | > 250 | – | – | –
CN1C(=O)CC(c2ccccc2)=Nc2cc(F)cc(F)c21 [Compound 16, 7,9-Difluoro-1-methyl-4-phenyl-1H-1,5-benzodiazepin-2(3H)-one] | > 1000 | – | – | 0.00 | 0 | 0 | > 200 | > 250 | > 250 | – | – | –
O=C1CC(c2ccccc2)=Nc2c(F)cc(F)cc2N1 [Compound 17, 6,8-Difluoro-4-phenyl-1H-1,5-benzodiazepin-2(3H)-one] | > 1000 | – | – | 0.04 | 1.8 | 2.5 | < 50 | > 250 | > 250 | 221.5 | – | –
CN1C(=O)CC(c2ccccc2)=Nc2ccccc21 [Compound 19, 1-Methyl-4-phenyl-1H-1,5-benzodiazepin-2(3H)-one] | > 1000 | – | – | 0.03 | 1.7 | 3.5 | > 200 | – | – | – | 201 ± 27 | > 250
COc1cc(C2=Nc3cc(Cl)c(Cl)cc3NC(=O)C2)cc(OC)c1OC [Compound 23, 7,8-Dichloro-4-(3,4,5-trimethoxyphenyl)-1H-1,5-benzodiazepin-2(3H)-one] | > 500 | – | – | 0.03 | 2.7 | 4.6 | < 20 | > 250 | – | 246 | – | –
Cc1c(C)c2c(c(C)c1O)CCC(C)(C(=O)O)O2 (stereo not shown) [Trolox, reference compound] | 25.1 ± 1.2 | 1 | 1 | 1 | 51.3 | 100 | – | – | – | – | – | –

Reference: PMC8533176, “1,5-Benzodiazepin-2(3H)-ones: In Vitro Evaluation as Antiparkinsonian Agents” (Antioxidants, 2021)
